Experimental findings from US12697366B2, “Thermogenic compositions and methods” (Ohio State Innovation Foundation, priority 2016, dated 2026) are described below.

The test system of one experiment is PPARα-LBD. The experiment is described as follows: PPARα-LBD luciferase reporter in transiently transfected HEK293 cells. Type of experiment: cell-based, human. The note with it: EREG 50 ng/mL; EGFR-I 10 μM, MAPK-I 10 μM, HSL-I 10 μM, SRC-I 1 μM, PI3K-I 100 nM. The method, then:
FIGS. 11A to 11I show adipokine Ereg is bilaterally associated with obesity and thermogenesis and activates PPARα. […] Microarray gene analysis was performed using Affymetrix microarray. FIG. 11B: Ereg expression was measured in non-differentiated and differentiated (day 5) 3T3-L1 adipocytes (Mann-Whitney test) using a customized NanoString mouse panel. FIG. 11C: Ereg expression was measured in differentiated (day 5) 3T3-L1 and Aldh1a1^−/− adipocytes by Taqman and normalized to TATA box protein (TBP). FIG. 11D: Plasma EREG concentrations were measured in mice from Study 1 by western blot. […] FIG. 11E: Plasma EREG concentrations were measured and quantified in iAb of WT and ob/ob mice from Study 2 by western blot (n=5 per each group). […] FIG. 11F: EREG was measured in iAb, subcutaneous and brown fat by western blot. Fat pads were dissected from WT mice on regular chow (Study 1). FIG. 11G: Ucp2 and Ucp1 expression was measured in differentiated 3T3-L1 adipocytes (day 5) stimulated with vehicle (PBS) or recombinant EREG (50 ng/mL) added in the differentiation medium I and II. Expression level were measured by Taqman and normalized by TBP. FIGS. 11H and 11I: HEK293 cells were transiently transfected with PPARα-LBD, UASTK-luciferase, and renilla. […] Data represents % PPARα-LBD activation. Asterisks indicate significant difference (p<0.05) compared to vehicle control, #, indicates statistical difference between PPARα-LBD activation by EREG alone and in the presence of inhibitors. Data represent mean±SD. The Mann-Whitney test was used throughout these studies for group comparison.
HEK293 cells ([…] cells, 24-well plates) were used for transient transfection experiments. Cells were transfected with human PPARα-LBD construct, yeast UASTK luciferase reporter (SwitchGear Genomics, Menlo Park, CA), using Fugene (Roche Applied Science, Indianapolis, IN). Transfections were carried out in OptiMeM (Invitrogen, Carlsbad, CA) medium for 12 hours as described previously. Luciferase was measured using Promega assay according to manufacturer's instructions

A further experiment deals with 3T3-L1 adipocytes. Put plainly: LTA axon guidance gene expression in 3T3-L1 adipocytes (NanoString mouse innervation panel). Type of experiment: cell-based. The settings on record: 24 hrs; for Efna5 and Epha4 expression: TTNPB 50 nM or BMS493 100 nM. The protocol:
FIG. 5A to 5I show retinoids regulate the LTA axon guiding secretome via ephrin A5. FIG. 5A: DRG neurons were cultured in DRG culture medium with secretome from Aldh1a1^−/− adipocytes (1/1, v/v) that were treated with or without RA (100 nM). RA was added to Aldh1a1^−/− differentiation medium (Day 0, 2, 5). To prepare this secretome, medium was collected for last 24 hours. Representative images were selected from three independent experiments. Average neurite growth indices were measured by XTI microscopy in DRG neurons in DRG culture medium containing veh (white bar), NGF (vertical lined bar), or Aldh1a1^−/− secretome treated without (black bar) or with RA (hatched bar). An asterisk indicates P<0.05; Mann-Whitney U test. FIG. 5B: 3T3-L1 adipocytes (n=3) were cultured in differentiation medium for 4 days. At day 5, medium was replaced by UV-treated 1% FBS-contained DMEM with and without Rald (30 nM). 24 hrs post stimulation, cells were harvested for mRNA. The gene expression was measured by the customized NanoString mouse innervation panel. […] Gene expression was measured by the NanoString mouse innervation panel. […] Protein levels of ephrin-A5 ligand (EFNA5) in medium EFNA5 and β-actin in cell lysates were analyzed by Western blot at Day 0, 2, 4, and 6. FIG. 5F: Plasma from WT and Aldh1a1^−/− mice (Table 1, Study 4) was measured by EFNA5 ELISA (n=5 per group) Table 1, Study 4. […] FIG. 5H: Tyrosine hydroxylase (TH) protein levels was analyzed in whole subcutaneous (Western blot insert) and iAb fat pads from mice injected with PBS (n=3) or EFNA5 (n=4, Table 1, Study 5) by Western blot. […] FIG. 5I: Heat (metabolic rate) was measured in PBS- and EFNA5-injected mice from Study 4 after 4° C. exposure by an open circuit indirect calorimetry treadmill (basal metabolic rate for 42 h is shown in FIG. 9C). […]
NanoString's nCounter analysis (NanoString Technologies) system performed direct detection of target molecules from a single sample using color-coded molecular barcodes, giving a digital quantification of the number of target molecules as described before (Shen et al., 2015, PMID: 25620076). […]

In experiment [1] the test system is iAb (omental) fat explants. The experiment is described as follows: LEP release from iAb (omental) fat explants of an obese patient (ELISA). Type of experiment: cell-based, human. The settings on record: EGFR-I, MAPK-I, PI3K-I. The protocol: FIGS. 14A to 14N show EREG induces expression of thermogenic and PPARα-target genes, suppresses inflammatory genes, and stimulates leptin secretion. FIGS. 14A to 14H and 14L: Markers for thermogenesis, adipogenesis, and inflammatory genes were analyzed using homogenates from whole iAb fat pads isolated from Veh- (white bars) and EREG-treated (black bars) DIO mice (Study 3). Gene expression was quantified using a customized NanoString panel. Data represent mean±SD, n.s.,—non-significant. FIG. 14I: LEP was measured in plasma in the same mice by ELISA. Data (mean±SD) are shown as percent to control (Veh, 100%) and is indicated as a dashed line. FIG. 14J: LEP release after stimulation with different concentrations of recombinant human EREGs was measured in explants of iAb (omental) tissue obtained from an obese insulin resistant patient. FIG. 14K: LEP release after stimulation of explants from same donor with and without EREG (50 ng/mL) in the presence and absence of insulin (Ins, 10 μg/mL), MAPK-I, EGFR-I, PI3K-I. Inhibitors concentrations were described in FIG. 1. FIG. 14M: LEP release after stimulation of iAb fat explants (2 h) from WT mice with different concentrations of recombinant mouse EREG. Experiment was repeated in three different WT mice. Data (mean±SD) are shown as percent to control (Veh, 100%). FIG. 14N: LEP release following stimulation of iAb fat explants (2 h) from WT mice with inhibitors of EGFR (10 μM) and MAPK (10 μM) in the presence or absence of EREG (50 ng/ml). Data (mean±SD) are shown as percent to control (Veh, 100%).
Abdominal fat tissue obtained from an obese patient was excised into 35 mg sections for stimulation with EREG. Explants were stimulated with EREG in DMEM containing 1% FBS for 2 h. Media was collected after 2 h, lyophilized and reconstituted in 120 μL deionized water for leptin detection using ELISA kit (Alpco, Salem, NH).

The test system of a further experiment is 3T3-L1 preadipocytes. The experiment is described as follows: FD-glucose uptake in 3T3-L1 preadipocytes. It is filed as cell-based, mouse. The settings on record: 30 mins; insulin 10 μg/ml, EREG 50 ng/ml, forskolin 4 μg/ml. The method, then:
Non-differentiated, 90% confluent 3T3-L1 cells were starved with glucose-deprived medium for 40 min. Then cells were treated in the presence and absence of different concentrations of nanoscaffold #2 and bovine insulin (200 μg/mL), all of reagents dissolved in the same glucose-deprived medium but containing fluorescent-D (FD)-glucose for 80 min. Thereafter, the FD glucose uptake was measured according to manufacturer's instructions (Cayman Chemical, USA, cat #600471). […] Non-differentiated, 90% confluent 3T3-L1 cells treated in the presence and absence of different concentrations of nanoscaffold #2 and bovine insulin (10 μg/mL) or mouse epiregulin (EREG, 0.05 μg/mL) and incubated for 24 h. Then cells were starved with glucose-deprived medium for 40 min and, then incubated with fluorescent-D (FD)-glucose for 80 min. Thereafter, the FD glucose uptake was measured according to manufacturer's instructions (Cayman Chemical, USA, cat #600471). Data are shown as percent of uptake in the presence of insulin (100%).
Non-differentiated, 90% confluent 3T3-L1 cells treated in the presence of bovine insulin (10 μg/mL), mouse epiregulin (EREG, 0.05 μg/mL), or their combinations and incubated for 24 h. Then cells were starved with glucose-deprived medium for 40 min and, then incubated with fluorescent-D (FD)-glucose for 80 min. Thereafter, the FD glucose uptake was measured according to manufacturer's instructions (Cayman Chemical, USA, cat #600471).
Non-differentiated, 90% confluent 3T3-L1 cells were starved with glucose-deprived medium for 50 min. Then cells were treated in the presence and absence of different concentrations of mouse recombinant IGFBP4 with and without nanoscaffold #2 and human insulin (10 μg/mL). All of reagents were dissolved in the same glucose-deprived medium but containing fluorescent-D (FD)-glucose for 90 min. Thereafter, the FD glucose uptake was measured according to manufacturer's instructions (Cayman Chemical, USA, cat #600471).
Glucose uptake assay was performed using glucose uptake cell-based assay kit (Cayman Chemical, Ann Arbor, MI). 3T3-L1 or human preadipocytes were cultured at a density of 5×10^4 per well into a 96-well plate (n=7) in high glucose media and grown overnight. Old cell culture medium was removed the next day and washed with PBS to remove residual glucose. Supplied 2-deoxy-2-[(7-nitro-2,1,3-benzoxadiazol-4-yl)amino]-D-glucose) (2-NBDG) was diluted to 150 μg/mL in DMEM medium without glucose, phenol red, L-glutamine, sodium pyruvate, and HEPES (Life technologies, Grand Island, New York). 100 μL of 2-NBDG glucose free medium with or without recombinant EREG and other treatments was added to the plated cells. After incubating at 37° C. for 30 minutes, cells were washed gently two times with 200 μL of glucose assay buffer. 100 μL of the assay buffer was added to each well and measured for fluorescence at an excitation/emission of 485/535 nm.
Fluorescence glucose uptake (FD-glucose assay) was performed as described PMID: 32065973, using insulin, 1.7 μM and different AACs at concentration 0.1 μM.
FD-glucose uptake in mouse 3T3-L1 preadipocytes (n=8 per treatment) treated with vehicle (Veh; PBS, open bar) or hINS (1.7 μM), mouse leptin (mLep; 12.5 nM, hatched bar), or AAC2 (0.1 μM black bar) in the presence and absence of GLUT1 inhibitor (BAY-876; 10 nM in DMSO). Cells were pre-treated with or without BAY-876 for 40 min and then FD glucose and treatment reagents were added for additional 80 min of incubation. Data (%) was normalized to FD-glucose uptake in control (Veh) 3T3-L1 cells without inhibitor (100%). Student's independent t-test.

For the compound `COc1ccc(Cl)c(Nc2ncnc3cc(OCC4CCN(C)CC4)c(OC)cc23)c1` [SRC inhibitor, AZM475271], the “EREG-dependent PPARα-LBD activation in the presence of inhibitor” value in the experiment on PPARα-LBD is “now effect”.
As for `COc1nn(-c2ccc(NC(=O)OCc3ccccc3)c(C)c2)c(=O)o1` [HSL inhibitor, CAY10499], the “EREG-dependent PPARα-LBD activation in the presence of inhibitor” value in the experiment with PPARα-LBD was “abolished”.
For `C/C(=C\c1ccc(C(=O)O)cc1)c1ccc2c(c1)C(C)(C)CCC2(C)C` [TTNPB], the “Efna5 and Epha4 expression” value in the experiment with 3T3-L1 adipocytes was “suppressed”.
In the case of `CC1(C)CC=C(C#Cc2ccccc2)c2cc(/C=C/c3ccc(C(=O)O)cc3)ccc21` [BMS429], the “Efna5 and Epha4 expression” value with 3T3-L1 adipocytes is “induced”.
Take `N#CC(=C(/N)Sc1ccccc1N)/C(C#N)=C(\N)Sc1ccccc1N` [MAPK inhibitor, U0126]: in experiment [1], the “EREG / insulin mediated LEP release in the presence of inhibitor” value is “inhibited”. In addition, the “EREG-dependent PPARα-LBD activation in the presence of inhibitor” value in the experiment with PPARα-LBD was “abolished”.
Consider `COc1cc2ncnc(Nc3cccc(Cl)c3)c2cc1OC` [EGFR inhibitor, Tyrphostin AG1478], for which the “EREG / insulin mediated LEP release in the presence of inhibitor” value in experiment [1] is “inhibited”. Besides, the “EREG-dependent PPARα-LBD activation in the presence of inhibitor” value in the experiment with PPARα-LBD is given as “abolished”.
Regarding `C=C[C@@]1(C)CC(=O)[C@]2(O)[C@@]3(C)[C@@H](O)CCC(C)(C)[C@@H]3[C@H](O)[C@H](OC(C)=O)[C@@]2(C)O1` [forskolin, reference compound], the “glucose uptake compared to non-stimulated 3T3-L1 preadipocytes” value in the experiment with 3T3-L1 preadipocytes worked out at 245%.
For `CC1=C(/C=C/C(C)=C/C=C/C(C)=C/C=O)C(C)(C)CCC1` [retinaldehyde], the “expression of molecules associated with the LTA-axon guidance secretome” value in the experiment on 3T3-L1 adipocytes (Rald 30 nM) is given as “significantly increased”.
